Data as given in patent US20240158446A1, “CYCLIC COMPOUND HAVING SELECTIVE INHIBITORY ACTION ON KRAS OVER HRAS AND NRAS” (CHUGAI SEIYAKU KABUSHIKI KAISHA, priority 2021, published 2024).
Where two headings read alike, the source gives them in different places. Where a SMILES comes first, the peptide text is derived from it. Bridges are numbered along the chain shown (N, C = ends). [ ]: non-standard residue; d: D form. The star is where a group is joined. hPhe(3-Cl-4-CF3) = N[C@@H](CCc1ccc(C(F)(F)F)c(Cl)c1)C(=O)O; NPrPhe(4-CF3) = CCCN[C@@H](Cc1ccc(C(F)(F)F)cc1)C(=O)O; NPrPhe(4-Me) = CCCN[C@@H](Cc1ccc(C)cc1)C(=O)O; NMeGly(cPent) = CN[C@H](C(=O)O)C1CCCC1; Pro(4,4-F2) = O=C(O)[C@@H]1CC(F)(F)CN1; NMeD = CN[C@@H](CC(=O)O)C(=O)O; NMeL = CN[C@@H](CC(C)C)C(=O)O; NMeAbu = CC[C@H](NC)C(=O)O; Morpholide = C1CN(*)CCO1; NMeA = CN[C@@H](C)C(=O)O; Ac5c = NC1(C(=O)O)CCCC1; Aze = O=C(O)[C@@H]1CCN1; NEtG = CCNCC(=O)O; Sar = CNCC(=O)O

Key:
[1] = biological target: GDP-bound KRAS wild-type protein (Homo sapiens, UniProt P01116); test: Binding to KRAS by surface plasmon resonance (SPR), Single Cycle Kinetics; settings: GDP-bound KRAS wild-type protein, read-out: KRAS KD
[2] = biological target: GDP-bound HRAS wild-type protein (Homo sapiens, UniProt P01112); test: Binding to HRAS by surface plasmon resonance (SPR), Single Cycle Kinetics; settings: SPR, GDP-bound HRAS wild-type protein vs GDP-bound KRAS wild-type protein
[3] = biological target: GDP-bound NRAS wild-type protein (Homo sapiens, UniProt P01111); test: Binding to NRAS by surface plasmon resonance (SPR), Single Cycle Kinetics; settings: SPR, GDP-bound NRAS wild-type protein vs GDP-bound KRAS wild-type protein
[4] = SPR Single Cycle Kinetics, 1:1 binding model

Chain of GDP-bound KRAS wild-type protein (P01116 whole entry): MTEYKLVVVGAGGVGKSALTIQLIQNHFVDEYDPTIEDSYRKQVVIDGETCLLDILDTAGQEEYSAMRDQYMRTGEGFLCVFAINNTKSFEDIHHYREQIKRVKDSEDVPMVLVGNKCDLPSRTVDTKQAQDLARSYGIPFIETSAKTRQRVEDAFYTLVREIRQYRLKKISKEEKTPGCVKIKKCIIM
Chain of GDP-bound NRAS wild-type protein (P01111 whole entry): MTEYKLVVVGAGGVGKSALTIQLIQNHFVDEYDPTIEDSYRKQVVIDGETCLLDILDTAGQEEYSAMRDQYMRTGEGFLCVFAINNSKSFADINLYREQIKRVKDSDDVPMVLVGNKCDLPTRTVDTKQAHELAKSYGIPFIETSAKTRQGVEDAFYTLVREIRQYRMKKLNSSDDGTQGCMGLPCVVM
Chain of GDP-bound HRAS wild-type protein (P01112 whole entry): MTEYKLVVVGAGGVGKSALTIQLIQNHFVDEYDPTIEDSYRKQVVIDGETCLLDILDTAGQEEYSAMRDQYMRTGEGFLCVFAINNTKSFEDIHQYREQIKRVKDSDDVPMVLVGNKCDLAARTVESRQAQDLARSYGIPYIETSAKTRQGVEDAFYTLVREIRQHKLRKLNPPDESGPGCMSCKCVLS

Structure (SMILES): CCC[C@H]1C(=O)N[C@@H]([C@@H](C)CC)C(=O)N(C)CC(=O)N(C)[C@H]2C/C=C\CCN(C2=O)[C@@H](Cc2ccc(C)cc2)C(=O)N(C)CC(=O)N[C@@H](CCc2ccc(C(F)(F)F)c(Cl)c2)C(=O)N2C[C@H](OCC)C[C@H]2C(=O)NC2(CC(C)(C)C2)C(=O)N(C)[C@@H](C(CC)CC)C(=O)N(C)[C@H](C(=O)N(C)C)CC(=O)N1C [PP2146]
- Kd ([1]; SPR, Single Cycle Kinetics): 0.33 nM
- HRAS/KRAS (ratio of KD value for HRAS to KD value for KRAS) [2]: A (a compound having 10 or more and less than 20 is denoted as A)
- NRAS/KRAS (ratio of KD value for NRAS to KD value for KRAS) [3]: A (a compound having 10 or more and less than 20 is denoted as A)

Structure (SMILES): CCCN1C(=O)CN(CC)C(=O)CN(C)C(=O)[C@H]([C@@H](C)CC)NC(=O)[C@H](CC(C)C)N(C)C(=O)C[C@@H](C(=O)N2CCOCC2)N(C)C(=O)[C@H](C2CCCC2)N(C)C(=O)C2(CCCC2)NC(=O)[C@@H]2CCCN2C(=O)[C@H](CCc2ccc(C(F)(F)F)c(Cl)c2)NC(=O)CN(C)C(=O)[C@@H]1Cc1ccc(C)cc1 [PP0065] ([NMeL]I[Sar][NEtG][NPrPhe(4-Me)][Sar][hPhe(3-Cl-4-CF3)]P[Ac5c][NMeGly(cPent)][NMeD]-Morpholide; lactam N-11)
- Kd [1, 4]: 0.54 nM
- HRAS/KRAS (ratio of KD value for HRAS to KD value for KRAS) [2]: C (A compound having a KD ratio of 0.1 or more and less than 3 is denoted as C)
- NRAS/KRAS (ratio of KD value for NRAS to KD value for KRAS) [3]: C (A compound having a KD ratio of 0.1 or more and less than 3 is denoted as C)

Structure (SMILES): CCCN1C(=O)[C@@H]2CCN2C(=O)[C@H](C)N(C)C(=O)[C@H]([C@@H](C)CC)NC(=O)[C@H](CC)N(C)C(=O)C[C@@H](C(=O)N2CCOCC2)N(C)C(=O)[C@H](C2CCCC2)N(C)C(=O)C2(CCCC2)NC(=O)[C@@H]2CC(F)(F)CN2C(=O)[C@H](CCc2ccc(C(F)(F)F)c(Cl)c2)NC(=O)CN(C)C(=O)[C@@H]1Cc1ccc(C(F)(F)F)cc1 [PP0206] ([NMeAbu]I[NMeA][Aze][NPrPhe(4-CF3)][Sar][hPhe(3-Cl-4-CF3)][Pro(4,4-F2)][Ac5c][NMeGly(cPent)][NMeD]-Morpholide; lactam N-11)
- Kd [1, 4]: 0.071 nM
- HRAS/KRAS (ratio of KD value for HRAS to KD value for KRAS) [2]: B (a compound having 3 or more and less than 10 is denoted as B)
- NRAS/KRAS (ratio of KD value for NRAS to KD value for KRAS) [3]: C (A compound having a KD ratio of 0.1 or more and less than 3 is denoted as C)

Structure (SMILES): CCO[C@@H]1C[C@H]2C(=O)NC3(CCC3)C(=O)N(C)[C@@H](C3CCCC3)C(=O)N(C)[C@H](C(=O)N(C)C)CC(=O)N(C)[C@@H](C)C(=O)N[C@@H]([C@@H](C)CC)C(=O)N(C)CC(=O)N(C)[C@H]3CCCCCN(C3=O)[C@@H](Cc3ccc(C(F)(F)F)cc3)C(=O)N(C)CC(=O)N[C@@H](CCc3cc(F)c(C(F)(F)F)c(F)c3)C(=O)N2C1 [PP0476]
- Kd [1, 4]: 0.2 nM
- HRAS/KRAS (ratio of KD value with respect to HRAS to KD value with respect to KRAS) [2]: B (a compound having 3 or more and less than 10 is denoted as B)
- NRAS/KRAS (ratio of KD value with respect to NRAS to KD value with respect to KRAS) [3]: B (a compound having 3 or more and less than 10 is denoted as B)

Structure (SMILES): CCO[C@@H]1C[C@H]2C(=O)NC3(CC(F)(F)C3)C(=O)N(C)[C@@H](C3CCCC3)C(=O)N(C)[C@H](C(=O)N3CCOCC3)CC(=O)N(C)[C@@H](CC(C)C)C(=O)N[C@@H]([C@@H](C)CC)C(=O)N(C)CC(=O)N(C)[C@H]3C[C@H]4C[C@H]4CN(C3=O)[C@@H](Cc3ccc(C(F)(F)F)cc3)C(=O)N(C)CC(=O)N[C@@H](CCc3cc(F)c(C(F)(F)F)c(F)c3)C(=O)N2C1 [PP0831]
- Kd ([1]; SPR, Single Cycle Kinetics): 0.32 nM
- HRAS/KRAS (ratio of KD value for HRAS to KD value for KRAS) [2]: C (A compound having a KD ratio of 0.1 or more and less than 3 is denoted as C)
- NRAS/KRAS (ratio of KD value for NRAS to KD value for KRAS) [3]: C (A compound having a KD ratio of 0.1 or more and less than 3 is denoted as C)

Structure (SMILES): CC[C@H](C)[C@@H]1NC(=O)[C@H](CC(C)C)N(C)C(=O)C[C@@H](C(=O)N2CCOCC2)N(C)C(=O)[C@H](C2CCCC2)N(C)C(=O)C2(CCCC2)NC(=O)[C@@H]2CCCN2C(=O)[C@H](CCc2ccc(C(F)(F)F)c(Cl)c2)NC(=O)CN(C)C(=O)[C@H](Cc2ccc(C)cc2)N2CCCCC[C@@H](C2=O)N(C)C(=O)CN(C)C1=O [PP0317]
- Kd [1, 4]: 0.86 nM
- HRAS/KRAS (ratio of KD value for HRAS to KD value for KRAS) [2]: B (a compound having 3 or more and less than 10 is denoted as B)
- NRAS/KRAS (ratio of KD value for NRAS to KD value for KRAS) [3]: B (a compound having 3 or more and less than 10 is denoted as B)

Structure (SMILES): CCO[C@@H]1C[C@H]2C(=O)NC3(CCC3)C(=O)N(C)[C@@H](C3CCCC3)C(=O)N(C)[C@H](C)CC(=O)N(C)[C@@H](CC(C)C)C(=O)N[C@@H]([C@@H](C)CC)C(=O)N(C)CC(=O)N(C)[C@H]3C/C=C\CCN(C3=O)[C@@H](Cc3ccc(C)cc3)C(=O)N(C)CC(=O)N[C@@H](CCc3cc(F)c(C(F)(F)F)c(F)c3)C(=O)N2C1 [PP1417]
- Kd ([1]; SPR, Single Cycle Kinetics, 1:1 binding model): 0.26 nM
- HRAS/KRAS (ratio of KD value for HRAS to KD value for KRAS) ([2]; KD ratio class): B (a compound having 3 or more and less than 10 is denoted as B)
- NRAS/KRAS (ratio of KD value for NRAS to KD value for KRAS) ([3]; KD ratio class): B (a compound having 3 or more and less than 10 is denoted as B)
